Each structure is given as a SMILES string.

The assay has as its target T1, Adenosine receptor A1 (Rattus norvegicus, UniProt P25099).
T1 sequence (P25099 whole entry): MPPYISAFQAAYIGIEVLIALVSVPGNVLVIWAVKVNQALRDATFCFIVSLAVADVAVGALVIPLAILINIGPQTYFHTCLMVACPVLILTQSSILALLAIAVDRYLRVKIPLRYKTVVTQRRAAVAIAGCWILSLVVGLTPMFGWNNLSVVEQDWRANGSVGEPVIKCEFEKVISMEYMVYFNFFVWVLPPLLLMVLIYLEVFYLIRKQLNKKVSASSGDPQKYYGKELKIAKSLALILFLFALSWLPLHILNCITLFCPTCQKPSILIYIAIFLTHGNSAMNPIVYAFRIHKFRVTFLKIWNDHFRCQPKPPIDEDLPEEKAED
Description: Binding affinity against adenosine A1 receptor in rat brain membrane using N6-[3H]cyclohexyladenosine.

On to `CC(Sc1nc(SC(C)C(N)=O)c2cnn(-c3ccccc3)c2n1)C(N)=O` (stereo unspecified) [2-[6-(1-Carbamoyl-ethylsulfanyl)-1-phenyl-1H-pyrazolo[3,4-d]pyrimidin-4-ylsulfanyl]-propionamide], for which the Ki (as a rule, the dissociation constant of the complex between target and ligand, obtained from inhibition or displacement) came out at 370 nM.

The record behind these values is BindingDB's records for doi:10.1021/jm00384a016 (1987).
